Test results taken from patent US9233933B2, “4,4-disubstituted-1,4-dihydropyrimidines and the use thereof as medicaments for the treatment of hepatitis B” (priority 2012, dated 2016).
Read-outs that look alike come from different tables or passages of the source.

Tests used:
HBV [1] = test: anti-HBV activity in stable transfected HepG2.2.15 cell line, HBV DNA from secreted virions by realtime PCR; type: cell-based, Hepatitis B virus; conditions: read-out: HBV-HepG2 2.15 EC50
[2] = Cytotoxicity in HepG2 cells using CellTiter-Blue, same incubation period as HepG2.2.15 assay; type: cell-based; conditions: human
Procedure: Cytotoxicity of the compounds was tested in HepG2 cells using CellTiter-Blue, with the same incubation period and dose range as in the HepG2.2.15 assay.

HBV [3] = test: anti HBV activity in HepG2.117 cell line (Tet-off, inducibly HBV producing), intracellular HBV DNA by realtime PCR; type: cell-based, Hepatitis B virus; conditions: read-out: HepG2 117 EC50
[4] = Cytotoxicity in HepG2 cells incubated 4 days, Resazurin assay; conditions: human, HepG2 4 days CC50, HepG2 cells
[5] = HepG2.2.15 cells, 6 days of treatment, secreted virion HBV DNA
[6] = HepG2 cells, 6 days, CellTiter-Blue, read-out: HepG2 6 days CC50
[7] = Hepatitis B virus, HepG2.117, 72 h, HepG2.117 cells, 3 days of treatment, intracellular HBV DNA
[8] = Hepatitis B virus, HepG2.2.15, 144 h, HepG2.2.15 cells, 6 days of treatment, secreted virion HBV DNA
[9] = HepG2.117 cells, 3 days of treatment, intracellular HBV DNA
[10] = Hepatitis B virus, HepG2.2.15, 144 h
[11] = Hepatitis B virus, HepG2.117, 72 h

| SMILES | CC50 at 6 days [2, 6] | EC50 (HBV [3]; [7]) | CC50 at 4 days [4] | EC50 (HBV [1]; [8]) | further results |
| --- | --- | --- | --- | --- | --- |
| CCOC(=O)C1=C(CN2CCOCC2)NC(c2ccccn2)=NC1(C)c1ccc(F)cc1 (racemic) [Compound 4] | 51.1 µM | 0.66 µM | > 25 µM |  | EC50 (HBV [1]; [5]): 1.92 µM |
| N#CC1=C(CN2CCOCC2)NC(c2ccccn2)=NC12CCCc1cc(F)ccc12 (racemic) [Compound 60] | > 100 µM | 2.5 µM | > 25 µM | 2.83 µM |  |
| COC(=O)C1=C(C)NC(c2nccs2)=NC1(C)c1ccc(F)c(F)c1 (racemic) [Compound 155] |  | 14 µM |  | 0.744 µM |  |
| COC(=O)C1=C(C)NC(c2ncccc2F)=NC1(C)c1ccc(F)c(F)c1 (racemic) [Compound 158] |  | 4.56 µM | > 25 µM |  |  |
| COC(=O)C1=C(C)NC(SC)=NC1(C)c1ccc(F)c(F)c1 (racemic) [Compound 160] |  | 23.7 µM | > 25 µM | 0.717 µM |  |
| N#CC1=C(CN2CCOCC2)NC(c2ccccn2)=NC12CCCc1cc(F)ccc12 (single isomer, unassigned) [Compound 60a] | > 100 µM |  | > 100 µM |  | EC50 (HBV [1]; [5]): > 100 µM; EC50 (HBV [3]; [9]): > 100 µM |
| COC(=O)C1=C(C)NC(c2ncc(F)cc2F)=NC1(C)c1ccc(F)c(F)c1 (single isomer, unassigned) [Compound 132a] |  | > 25 µM | 21.1 µM | > 100 µM |  |
| COC(=O)C1=C(C)NC(c2ncc(F)cc2F)=NC1(c1ccc(F)c(F)c1)C(F)F (single isomer, unassigned) [Compound 151a] |  |  | > 25 µM |  | EC50 (HBV [1]; [5]): > 100 µM; EC50 (HBV [3]; [9]): > 25 µM |
| COC(=O)C1=C(C)NC(c2nccs2)=NC1(C)c1ccc(F)c(F)c1 (single isomer, unassigned) [Compound 155a] |  | 17.1 µM |  |  | EC50 (HBV [1]; [5]): 0.983 µM |
| COC(=O)C1=C(C)NC(c2nccs2)=NC1(C)c1ccc(F)c(F)c1 (single isomer, unassigned) [Compound 155b] |  |  |  |  | EC50 (HBV [1]; [5]): > 100 µM; EC50 (HBV [3]; [9]): > 25 µM |
| COC(=O)C1=C(C)NC(c2ncccc2F)=NC1(C)c1ccc(F)c(F)c1 (single isomer, unassigned) [Compound 158a] |  |  | > 25 µM |  | EC50 (HBV [3]; [9]): 2.44 µM |
| COC(=O)C1=C(C)NC(c2ncccn2)=NC1(C)c1ccc(F)c(F)c1 (single isomer, unassigned) [Compound 159a] |  | 25 µM | > 25 µM |  | EC50 (HBV [1]; [5]): 37.5 µM |
| COC(=O)C1=C(C)NC(SC)=NC1(C)c1ccc(F)c(F)c1 (single isomer, unassigned) [Compound 160a] |  |  | > 25 µM |  | EC50 (HBV [1]; [5]): > 50 µM; EC50 (HBV [3]; [9]): > 25 µM |
| COC(=O)C1=C(C#N)NC(c2ncc(F)cc2F)=NC1(C)c1ccc(F)c(F)c1 (single isomer, unassigned) [Compound 163a] |  | > 25 µM | > 25 µM | 69.5 µM |  |
| COC(=O)C1=C(C)NC(c2ncc(F)cc2F)=NC1(C)c1ccc(F)c(F)c1 (stereo not drawn) [132b (−)-camphanic acid] |  |  |  |  | EC50 (HBV [1]; [5]): 0.489 µM |
| COC(=O)C1=C(CN2CCOCC2)NC(c2ccccn2)=NC1(C)c1ccc(F)cc1 (stereo not drawn) [Compound 2] | > 100 µM | 0.25 µM | > 50 µM | 0.669 µM |  |
| CCOC(=O)C1=C(C#N)NC(c2ccccn2)=NC1(C)c1ccc(F)cc1 (stereo not drawn) [Compound 5] | > 100 µM |  |  | > 100 µM |  |
| CCOC(=O)C1=C(C)NC(c2ccccn2)=NC1(C)c1ccc(F)cc1 (stereo not drawn) [Compound 6] | > 25 µM |  |  | > 25 µM |  |
| CCOC(=O)C1=C(CN2CCCC2)NC(c2ccccn2)=NC1(C)c1ccc(F)cc1 (stereo not drawn) [Compound 7] | 13.4 µM |  |  | > 100 µM |  |
| CCOC(=O)C1=C(CN2CCSCC2)NC(c2ccccn2)=NC1(C)c1ccc(F)cc1 (stereo not drawn) [Compound 8] | 54.3 µM | 3.3 µM | > 50 µM | 14.8 µM |  |
| CCOC(=O)C1=C(CN2CCCCC2)NC(c2ccccn2)=NC1(C)c1ccc(F)cc1 (stereo not drawn) [Compound 9] | 62.4 µM |  |  | > 100 µM |  |
| CCOC(=O)C1=C(C(F)(F)F)NC(c2ccccn2)=NC1(C)c1ccc(F)cc1 (stereo not drawn) [Compound 10] | > 10 µM | > 10 µM | > 10 µM | > 10 µM |  |
| CCOC(=O)C1=C(C(F)(F)C(F)(F)F)NC(c2ccccn2)=NC1(C)c1ccc(F)cc1 (stereo not drawn) [Compound 11] | > 100 µM |  |  | > 100 µM |  |
| COC(=O)C1=C(CN2CCOCC2)NC(c2ccccn2)=NC1(C)c1ccccc1Cl (stereo not drawn) [Compound 13] | > 100 µM | 3.9 µM | > 100 µM | 9.34 µM |  |
| CCOC(=O)C1=C(C)NC(c2ccccn2)=NC1(C)c1ccc(F)c(Cl)c1 (stereo not drawn) [Compound 17] | 39.9 µM | 21 µM | > 25 µM | > 50 µM |  |

| SMILES | CC50 at 6 days [2, 6] | EC50 (HBV [3]; [7]) | CC50 at 4 days [4] | EC50 (HBV [1]; [8]) | further results |
| --- | --- | --- | --- | --- | --- |
| CCOC(=O)C1=C(CN2CCOCC2)NC(c2ccccn2)=NC1(C)c1ccc(F)c(Cl)c1 (stereo not drawn) [Compound 18] | 36.5 µM | 1.6 µM | > 50 µM | 3.92 µM |  |
| CCOC(=O)C1=C(C)NC(c2nccs2)=NC1(C)c1ccc(F)c(Cl)c1 (stereo not drawn) [Compound 21] | 17.5 µM |  |  | 12.7 µM |  |
| CCOC(=O)C1=C(CN2CCOCC2)NC(c2ncc(F)cc2F)=NC1(C)c1ccc(F)cc1 (stereo not drawn) [Compound 24] | 37.9 µM | 0.16 µM | > 25 µM | 0.319 µM |  |
| COC(=O)C1=C(CN2CCOCC2)NC(c2ncc(F)cc2F)=NC1(C)c1cc(F)cc(Cl)c1 (stereo not drawn) [Compound 27] | > 100 µM | 0.63 µM | > 25 µM | 1.83 µM |  |
| COC(=O)C1=C(CN2CCOCC2)NC(c2ccccn2)=NC1(C)c1cc(F)cc(Cl)c1 (stereo not drawn) [Compound 29] | 47.4 µM | 3 µM | > 25 µM | 6.32 µM |  |
| COC(=O)C1=C(CN2CCOCC2)NC(c2ccccn2)=NC1(C)c1cccc(F)c1 (stereo not drawn) [Compound 30] | > 100 µM | 0.29 µM | > 25 µM | 0.941 µM |  |
| COC(=O)C1=C(C)NC(c2ccccn2)=NC1(C)c1cccc(F)c1 (stereo not drawn) [Compound 31] | > 100 µM |  | > 50 µM |  | EC50 (HBV [1]; [10]): 72.4 µM; EC50 (HBV [3]; [11]): 40.6 µM |
| CCOC(=O)C1=C(C)NC(c2ccccn2)=NC1(c1ccc(F)cc1)C(F)(F)F (stereo not drawn) [Compound 35] | 68.1 µM |  |  | > 100 µM |  |
| CCOC(=O)C1=C(C)NC(c2ccccn2)=NC12CCc1cc(F)ccc12 (stereo not drawn) [Compound 40] |  |  |  | 14 µM | CC50 at 6 days ([2]; HepG2 6 days CC50): 77 µM |
| N#CC1=C(CN2CCOCC2)NC(c2ccccn2)=NC12CCCc1ccccc12 (stereo not drawn) [Compound 61] | > 100 µM |  |  | 18 µM |  |
| COC(=O)C1=C(C)NC(c2ncc(F)cc2C)=NC12CCCc1cc(F)ccc12 (stereo not drawn) [Compound 81] |  |  |  | 19.9 µM | CC50 at 6 days ([2]; HepG2 6 days CC50): > 50 µM |
| COC(=O)C1=C(C)NC(c2ncc(F)cc2F)=NC1(C)c1ccc(F)c(F)c1 (stereo not drawn) [Compound 132b] |  |  | > 25 µM |  | EC50 (HBV [1]; [10]): 0.784 µM; EC50 (HBV [3]; [11]): 0.474 µM |
| COC(=O)C1=C(C)NC(c2ccc(F)cn2)=NC1(C)c1ccc(F)c(F)c1 (stereo not drawn) [Compound 133] |  |  | > 25 µM |  | EC50 (HBV [1]; [10]): 17.3 µM; EC50 (HBV [3]; [11]): 4.33 µM |
| COC(=O)C1=C(C2CC2)NC(c2ncc(F)cc2F)=NC1(C)c1ccc(F)c(F)c1 (stereo not drawn) [Compound 142] |  | 3.37 µM | > 25 µM | 11.5 µM |  |
| COC/C=C/C1=C(C(=O)OC)C(C)(c2ccc(F)c(F)c2)N=C(c2ncc(F)cc2F)N1 (stereo not drawn) [Compound 147] |  | 3.17 µM | > 25 µM | 2.73 µM |  |
| COC(=O)C1=C(C)NC(c2ncc(F)cc2F)=NC1(C)c1ccc(F)c(Cl)c1 (stereo not drawn) [Compound 148] |  | > 25 µM | 17.2 µM |  |  |
| COC(=O)C1=C(C)NC(c2ncc(F)cc2F)=NC1(C)c1ccc(F)c(C)c1 (stereo not drawn) [Compound 149] |  | 3.26 µM | > 25 µM | 23.8 µM |  |
| COC(=O)C1=C(CN2CCOCC2)NC(c2ncc(F)cc2F)=NC1(C)c1ccc(F)c(Cl)c1 (stereo not drawn) [Compound 150] |  | 0.694 µM | > 25 µM | 1.35 µM |  |
| COCC1=C(C(=O)OC)C(C)(c2ccc(F)c(F)c2)N=C(c2ncc(F)cc2F)N1 (stereo not drawn) [Compound 152] |  | 2.88 µM | > 25 µM | 3.38 µM |  |
| C=CC1=C(C(=O)OC)C(C)(c2ccc(F)c(F)c2)N=C(c2ncc(F)cc2F)N1 (stereo not drawn) [Compound 153] |  | 3.31 µM | > 25 µM | 12.9 µM |  |
| COC(=O)C1=C(C)NC(c2ncc(F)cc2C)=NC1(C)c1ccc(F)c(F)c1 (stereo not drawn) [Compound 154] |  | 17.6 µM | > 25 µM | 27.5 µM |  |
| COC(=O)C1=C(C)NC(c2ncc(F)cc2F)=NC1(C)c1ccc(Cl)c(F)c1 (stereo not drawn) [Compound 156] |  | 0.669 µM | > 25 µM | 1.11 µM |  |
| COC(=O)C1=C(C)NC(c2ncc(F)cc2F)=NC1(C)c1ccc(C)c(F)c1 (stereo not drawn) [Compound 157] |  | 3.06 µM | > 25 µM | 9.52 µM |  |
| COC(=O)C1=C(C)NC(c2cnccn2)=NC1(C)c1ccc(F)c(F)c1 (stereo not drawn) [Compound 161] |  | > 25 µM |  |  |  |
| COC(=O)C1=C(C)NC(c2nccn2C)=NC1(C)c1ccc(F)c(F)c1 (stereo not drawn) [Compound 162] |  | > 25 µM | > 25 µM | > 25 µM |  |
